How the values were obtained:
[1] = system: Escherichia coli; test: Inhibitory activity tested against procaryotic translation in Escherichia coli S30 Extract System; format: functional, organism-based
[2] = system: Staphylococcus aureus; test: In vitro minimum inhibitory concentration against Staphylococcus aureus 133.; format: functional
[3] = species: Oryctolagus cuniculus; test: Inhibitory activity tested against eucaryotic translation in Rabbit Reticulocyte Lysate System L 4540; format: functional
[4] = In vitro selectivity index was measured as IC50 eucaryotic translation/procaryotic translation; format: functional
[5] = system: Enterococcus faecium; test: Antibacterial activity against Enterococcus faecium L 4001 was determined; format: functional
[6] = system: Enterococcus faecium; test: Antibacterial activity against Enterococcus faecium 18531 was determined; format: functional
[7] = Antibacterial activity against […] pneumoniae 1707/4 was determined; format: functional
[8] = Antibacterial activity against […] pneumoniae G9a was determined; format: functional
[9] = system: Staphylococcus aureus; test: Antibacterial activity against Staphylococcus aureus 133 was determined; format: functional
[10] = system: Staphylococcus epidermidis; test: Antibacterial activity against Staphylococcus epidermidis 18570 was determined; format: functional

IC50 [1] [nM]	MIC [2] [µg/mL]	IC50 [3] [nM]	SMILES	other results
	0.2		CC(=O)O.CN(C(=O)C[C@@H](N)CCCCN)C1CN=C(Nc2ccccn2)NC1=O (stereo partly drawn)	
1000	50		CC(=O)O.CN(C(=O)C[C@@H](N)CCCCN)C1CN=C(Nc2nc3ccccc3[nH]2)NC1=O (stereo partly drawn)	
	100		CC(=O)O.CN(C(=O)C[C@@H](N)CCCCN)C1CN=C(Nc2ccccc2)NC1=O (stereo partly drawn)	
50	6.3	50	CC(=O)O.CN(C(=O)C[C@@H](N)CCCCN)C1CN=C(Nc2ccc3ccccc3n2)NC1=O (stereo partly drawn)	Selectivity [4]: 1
	< 0.05	70	CC(=O)O.CN(C(=O)C[C@@H](N)CCCN=C(N)N)C1CN=C(Nc2ccccn2)NC1=O (stereo partly drawn)	MIC [5]: 2 µg/mL; MIC [6]: > 64 µg/mL; MIC [7]: 2 µg/mL; MIC [8]: 2 µg/mL; ED100 [9]: 1 mg/kg; MIC [9]: 0.5 µg/mL; MIC [10]: 0.25 µg/mL
> 64000	50		CC(=O)O.CN(C(=O)C[C@@H](N)CCCCN)C1CN=C(Nc2cccnc2)NC1=O (stereo partly drawn)	
	> 100		CC(=O)O.CN(C1=NCC(N(C)C(=O)C[C@@H](N)CCCCN)C(=O)N1)c1ccccn1 (stereo partly drawn)	

The remaining lines, values behind:

SMILES	IC50 [1] [nM]	MIC [2] [µg/mL]	IC50 [3] [nM]	other results
CN(C(=O)C[C@@H](N)c1csc(CCN)n1)C1CN=C(NC(N)=O)NC1=O.O=S(=O)(O)C(F)(F)F (stereo partly drawn)	16000	100		
CN(C(=O)C[C@@H](N)CCCCN)C1CN=C(Nc2ncccn2)NC1=O.Cl.Cl (stereo partly drawn)	1000	1.6	380	Selectivity [4]: 0.38
CN(C(=O)C[C@@H](N)c1csc(CN)n1)C1CN=C(NC(N)=O)NC1=O.O=S(=O)(O)C(F)(F)F (stereo partly drawn)	32000	50		
CN(C(=O)C[C@@H](N)c1cc(CN)on1)C1CN=C(NC(N)=O)NC1=O.Cl.Cl (stereo partly drawn)	> 64000	> 100		
CN(C(=O)C[C@@H](N)CCCN=C(N)N)C1CN=C(NC(N)=O)NC1=O.Cl.Cl (stereo partly drawn)	300	0.1	170	MIC [5]: 2 µg/mL; MIC [6]: > 16 µg/mL; MIC [7]: 32 µg/mL; MIC [8]: 16 µg/mL; ED100 [9]: 0.25 mg/kg; MIC [9]: 0.25 µg/mL; MIC [10]: 0.25 µg/mL; Selectivity [4]: 0.57
CN(C(=O)C[C@@H](N)CCCCN)C1CN=C(NC2=NCCCN2)NC1=O.Cl.Cl (stereo partly drawn)		> 100		
Br.Cc1csc(NC2=NCC(N(C)C(=O)C[C@@H](N)CCCCN)C(=O)N2)n1 (stereo partly drawn)	1000	50		
Br.CN(C(=O)C[C@@H](N)CCCCN)C1CN=C(Nc2nc3ccccc3s2)NC1=O (stereo partly drawn)	3200	25		
CC(=O)O.CN(C(=O)C[C@@H](N)CCCN=C(N)N)C1CN=C(Nc2ccc3ccccc3n2)NC1=O (stereo partly drawn)	100	0.1	100	MIC [5]: 8 µg/mL; MIC [6]: > 16 µg/mL; MIC [7]: 8 µg/mL; MIC [9]: 0.5 µg/mL; MIC [10]: 0.25 µg/mL; Selectivity [4]: 1
Br.CN(C(=O)C[C@@H](N)CCCN=C(N)N)C1CN=C(Nc2ncccn2)NC1=O (stereo partly drawn)	< 50	0.4	100	Selectivity [4]: > 2
Br.CN(C(=O)C[C@@H](N)CCCCN)C1CN=C(Nc2cnccn2)NC1=O (stereo partly drawn)	< 100	< 0.1	< 100	
CN(C(=O)C[C@@H](N)CS(=O)(=O)CCN)C1CN=C(NC(N)=O)NC1=O.Cl.Cl (stereo partly drawn)		> 100		
CN(C(=O)C[C@@H](N)CCCCN)C1CN=C(NC(N)=O)NC1=O.Cl.Cl (stereo partly drawn)	500	0.05	2800	Selectivity [4]: 5.3
CN(C(=O)C[C@@H](N)CSCCN)C1CN=C(NC(N)=O)NC1=O.Cl.Cl (stereo partly drawn)		100		

Reference: ChEMBL document CHEMBL1136146, “Pyrimidinone antibiotics--heterocyclic analogues with improved antibacterial spectrum” (Bioorg Med Chem Lett, 2003)
